According to patent publication US11739098B2 (BRISTOL-MYERS SQUIBB COMPANY, priority 2017, dated 2023):

What was measured:
Type in all cases: cell-based
human TLR8 = target: T1, human TLR8 (Homo sapiens, UniProt Q9NR97); assay: TLR8 inhibition reporter assay (HEK-Blue cells, SEAP reporter, R848 stimulation); details: HEK-Blue cells overexpressing human TLR8, SEAP reporter, R848 15.9 μM
T1 construct: host or cells: HEK-Blue cells (HEK293-derived reporter line)
T1 sequence (Q9NR97 27-1041): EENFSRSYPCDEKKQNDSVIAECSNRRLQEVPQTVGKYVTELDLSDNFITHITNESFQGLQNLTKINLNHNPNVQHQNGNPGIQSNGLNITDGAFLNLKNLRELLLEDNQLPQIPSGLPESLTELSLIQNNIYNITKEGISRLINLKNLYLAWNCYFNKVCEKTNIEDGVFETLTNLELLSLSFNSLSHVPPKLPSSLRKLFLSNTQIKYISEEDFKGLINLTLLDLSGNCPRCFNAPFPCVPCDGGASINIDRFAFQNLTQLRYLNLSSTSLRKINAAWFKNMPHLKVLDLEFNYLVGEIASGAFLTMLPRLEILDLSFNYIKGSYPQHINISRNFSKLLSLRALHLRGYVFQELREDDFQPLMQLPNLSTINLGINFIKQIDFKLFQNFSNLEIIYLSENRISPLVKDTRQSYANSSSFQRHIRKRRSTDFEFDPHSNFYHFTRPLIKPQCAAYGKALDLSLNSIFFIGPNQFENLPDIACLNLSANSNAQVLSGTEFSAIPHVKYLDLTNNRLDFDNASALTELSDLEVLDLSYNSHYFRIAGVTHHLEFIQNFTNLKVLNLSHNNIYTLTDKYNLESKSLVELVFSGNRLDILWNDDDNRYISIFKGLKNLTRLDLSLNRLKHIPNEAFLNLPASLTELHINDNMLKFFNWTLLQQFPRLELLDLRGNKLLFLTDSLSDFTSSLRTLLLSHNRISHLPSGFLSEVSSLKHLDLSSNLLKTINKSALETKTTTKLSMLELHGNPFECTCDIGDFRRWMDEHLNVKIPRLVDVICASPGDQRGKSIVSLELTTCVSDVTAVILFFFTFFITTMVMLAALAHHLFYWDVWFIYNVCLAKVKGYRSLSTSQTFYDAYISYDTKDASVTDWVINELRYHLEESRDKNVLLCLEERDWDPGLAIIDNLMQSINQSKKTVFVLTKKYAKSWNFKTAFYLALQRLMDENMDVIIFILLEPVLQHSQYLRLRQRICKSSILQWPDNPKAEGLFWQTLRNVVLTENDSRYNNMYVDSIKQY
How it was run: (§1)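 Percent inhibition of agonist-induced SEAP secretion in HEK-Blue cells after 22 h at 37 °C. Stimuli: 7.5 μM gardiquimod, 15.9 μM R848, 5 nM ODN2006 for TLR7, TLR8 and TLR9, added after 30 min compound exposure over a 0.05 nM–50 μM range.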

human TLR9 = target: T2, human TLR9 (Homo sapiens, UniProt Q9NR96); assay: TLR9 inhibition reporter assay (HEK-Blue cells, SEAP reporter, ODN2006 stimulation); details: HEK-Blue cells overexpressing human TLR9, SEAP reporter, ODN2006 5 nM
T2 construct: host or cells: HEK-Blue cells (HEK293-derived reporter line)
T2 sequence (Q9NR96 26-1032): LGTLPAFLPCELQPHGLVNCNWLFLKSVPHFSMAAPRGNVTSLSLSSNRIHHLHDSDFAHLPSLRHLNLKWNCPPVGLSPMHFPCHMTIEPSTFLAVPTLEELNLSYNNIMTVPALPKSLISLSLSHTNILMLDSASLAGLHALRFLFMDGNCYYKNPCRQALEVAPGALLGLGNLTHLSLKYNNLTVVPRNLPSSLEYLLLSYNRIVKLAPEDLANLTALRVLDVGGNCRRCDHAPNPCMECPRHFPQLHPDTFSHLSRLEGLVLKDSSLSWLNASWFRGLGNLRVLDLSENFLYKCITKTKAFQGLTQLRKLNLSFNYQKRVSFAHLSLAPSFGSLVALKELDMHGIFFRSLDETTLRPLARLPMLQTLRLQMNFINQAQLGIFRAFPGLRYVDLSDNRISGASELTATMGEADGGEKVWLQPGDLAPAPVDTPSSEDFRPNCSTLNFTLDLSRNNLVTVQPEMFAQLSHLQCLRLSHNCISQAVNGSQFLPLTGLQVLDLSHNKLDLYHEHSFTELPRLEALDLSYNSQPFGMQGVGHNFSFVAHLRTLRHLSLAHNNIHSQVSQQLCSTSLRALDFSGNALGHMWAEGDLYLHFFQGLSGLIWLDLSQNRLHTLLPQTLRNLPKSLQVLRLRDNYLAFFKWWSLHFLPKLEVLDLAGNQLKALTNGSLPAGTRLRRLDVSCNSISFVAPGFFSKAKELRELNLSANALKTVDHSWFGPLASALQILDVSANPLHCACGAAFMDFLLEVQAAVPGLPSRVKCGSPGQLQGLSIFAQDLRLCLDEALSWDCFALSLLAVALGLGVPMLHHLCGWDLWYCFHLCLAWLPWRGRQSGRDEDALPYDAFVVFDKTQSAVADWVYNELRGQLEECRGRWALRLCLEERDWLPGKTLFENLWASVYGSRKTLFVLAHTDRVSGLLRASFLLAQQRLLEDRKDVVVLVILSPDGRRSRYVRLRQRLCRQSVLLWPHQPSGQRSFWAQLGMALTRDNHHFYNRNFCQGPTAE
How it was run: as §1

human TLR7 = target: T3, human TLR7 (Homo sapiens, UniProt Q9NYK1); assay: TLR7 inhibition reporter assay (HEK-Blue cells, SEAP reporter, gardiquimod stimulation); details: HEK-Blue cells overexpressing human TLR7, SEAP reporter, gardiquimod 7.5 μM
T3 construct: host or cells: HEK-Blue cells (HEK293-derived reporter line)
T3 sequence (Q9NYK1 27-1049): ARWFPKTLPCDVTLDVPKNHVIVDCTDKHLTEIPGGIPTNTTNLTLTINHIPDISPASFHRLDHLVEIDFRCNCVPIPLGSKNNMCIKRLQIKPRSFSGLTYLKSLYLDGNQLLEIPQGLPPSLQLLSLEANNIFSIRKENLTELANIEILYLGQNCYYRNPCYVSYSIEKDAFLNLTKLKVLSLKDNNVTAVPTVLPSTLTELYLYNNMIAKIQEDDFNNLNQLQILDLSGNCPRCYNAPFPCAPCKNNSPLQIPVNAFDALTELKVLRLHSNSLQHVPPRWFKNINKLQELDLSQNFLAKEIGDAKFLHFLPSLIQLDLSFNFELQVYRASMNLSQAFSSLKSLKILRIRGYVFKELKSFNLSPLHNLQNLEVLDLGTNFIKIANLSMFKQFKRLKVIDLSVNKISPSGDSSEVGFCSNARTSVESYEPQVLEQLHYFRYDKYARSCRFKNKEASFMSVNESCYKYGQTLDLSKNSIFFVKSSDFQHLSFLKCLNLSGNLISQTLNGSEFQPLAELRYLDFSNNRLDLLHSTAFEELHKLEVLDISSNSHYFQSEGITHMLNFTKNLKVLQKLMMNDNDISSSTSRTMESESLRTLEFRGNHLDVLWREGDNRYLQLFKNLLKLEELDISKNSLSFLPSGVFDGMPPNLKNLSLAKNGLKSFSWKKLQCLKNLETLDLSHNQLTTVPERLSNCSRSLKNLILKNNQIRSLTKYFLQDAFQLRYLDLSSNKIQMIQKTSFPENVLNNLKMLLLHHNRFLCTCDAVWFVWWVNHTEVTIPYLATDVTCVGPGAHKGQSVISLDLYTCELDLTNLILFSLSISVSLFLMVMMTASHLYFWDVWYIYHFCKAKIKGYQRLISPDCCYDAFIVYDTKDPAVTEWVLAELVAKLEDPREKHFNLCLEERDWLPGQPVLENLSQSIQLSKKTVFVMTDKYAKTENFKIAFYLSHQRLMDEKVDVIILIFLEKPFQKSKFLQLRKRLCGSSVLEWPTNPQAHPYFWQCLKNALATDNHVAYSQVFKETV
How it was run: as §1

Row | Structure (SMILES) | IC50 (human TLR8) [µM] | IC50 (human TLR9) [µM] | IC50 (human TLR7) [µM]
1 | CNCC(=O)N1CCC(c2ccc3[nH]c(-c4cnc5ncnn5c4)c(C(C)C)c3c2)CC1 [Example 555, 1-(4-(2-([1,2,4]triazolo [1,5-a]pyrimidin-6-yl)-3-isopropyl-1H-indol-5-yl)piperidin-1-yl)-2-(methylamino)ethan-1-one] | 0.1 to 1 | 1 to 50 | < 0.1
2 | Cc1c(-c2ccc3[nH]nnc3c2)[nH]c2ccc(C3CCNCC3)cc12 [Example 52, 5-(3-methyl-5-(piperidin-4-yl)-1H-indol-2-yl)-1H-benzo[d][1,2,3]triazole] | 1 to 50 | 0.1 to 1 | 1 to 50
3 | Cc1cc2nc(-c3[nH]c4ccc(C5CCN(CC(=O)N(C)C)CC5)cc4c3C(C)C)c(F)cn2n1 [Example 438, 2-(4-(2-(6-fluoro-2-methylpyrazolo[1,5-a]pyrimidin-5-yl)-3-isopropyl-1H-indol-5-yl)piperidin-1-yl)-N,N-dimethylacetamide] | 0.1 to 1 | 1 to 50 | 0.1 to 1
4 | CC(C)c1c(-c2cc3c(s2)CNCC3)[nH]c2ccc(C3CCNCC3)cc12 [Example 207, 2-(3-isopropyl-5-(piperidin-4-yl)-1H-indol-2-yl)-4,5,6,7-tetrahydrothieno [2,3-c]pyridine] | 1 to 50 | < 0.1 | 0.1 to 1
5 | Cc1nnn2ccc(-c3[nH]c4ccc(C5CCN(Cc6ncn(C)n6)CC5)cc4c3C(C)C)cc12 [Example 889, 5-(3-isopropyl-5-(1-((1-methyl-1H-1,2,4-triazol-3-yl)methyl)piperidin-4-yl)-1H-indol-2-yl)-3-methyl-[1,2,3]triazolo[1,5-a]pyridine] | < 0.1 | 1 to 50 | < 0.1
6 | Cc1cc2nc(-c3[nH]c4ccc(C5CCNCC5)cc4c3C(C)C)c(F)cn2n1 [Example 148, 6-fluoro-5-(3-isopropyl-5-(piperidin-4-yl)-1H-indol-2-yl)-2-methylpyrazolo[1,5-a]pyrimidine] | 0.1 to 1 | 1 to 50 | < 0.1
7 | CCc1c(-c2ccnc3[nH]ncc23)[nH]c2ccc(C3CCN(CCN)CC3)cc12 [Example 656, 2-(4-(3-ethyl-2-(1H-pyrazolo[3,4-b]pyridin-4-yl)-1H-indol-5-yl)piperidin-1-yl)ethan-1-amine] | < 0.1 | 0.1 to 1 | < 0.1
8 | CC(C)c1c(-c2cn(C)c3ncccc23)[nH]c2ccc(C3CCN(CC(=O)N(C)C)CC3)cc12 [Example 295, 2-(4-(3-isopropyl-2-(1-methyl-1H-pyrrolo[2,3-b]pyridin-3-yl)-1H-indol-5-yl)piperidin-1-yl)-N,N-dimethylacetamide] | < 0.1 | 1 to 50 | < 0.1
9 | Cc1cc(-c2[nH]c3ccc(C4CCN(C5COC5)CC4)cc3c2C(C)C)nc2scnc12 [Example 718, 5-(3-isopropyl-5-(1-(oxetan-3-yl)piperidin-4-yl)-1H-indol-2-yl)-7-methylthiazolo[5,4-b]pyridine] | < 0.1 | 1 to 50 | < 0.1
10 | CC(C)c1c(-c2cnc3cn[nH]c3c2)[nH]c2ccc(C3CCNCC3)cc12 [Example 63, 6-(3-isopropyl-5-(piperidin-4-yl)-1H-indol-2-yl)-1H-pyrazolo[4,3-b]pyridine] | < 0.1 | 0.1 to 1 | < 0.1

Next, values leading:

Row | IC50 (human TLR8) [µM] | IC50 (human TLR9) [µM] | IC50 (human TLR7) [µM] | Structure (SMILES)
11 | < 0.1 | > 50 | < 0.1 | Cc1cc(-c2[nH]c3ccc(C4CCN(C(=O)CN5CCS(=O)(=O)CC5)CC4)cc3c2C(C)C)cn2nnnc12 [Example 485, 2-(1,1-dioxidothiomorpholino)-1-(4-(3-isopropyl-2-(8-methyltetrazolo[1,5-a]pyridin-6-yl)-1H-indol-5-yl)piperidin-1-yl)ethan-1-one]
12 | < 0.1 | 1 to 50 | < 0.1 | CC(C)c1c(-c2ccnc3[nH]ncc23)[nH]c2ccc(C3CCN(C(=O)CN4CCC(CO)CC4)CC3)cc12 [Example 576, 2-(4-(hydroxymethyl)piperidin-1-yl)-1-(4-(3-isopropyl-2-(1H-pyrazolo[3,4-b]pyridin-4-yl)-1H-indol-5-yl)piperidin-1-yl)ethan-1-one]
13 | < 0.1 | 0.1 to 1 | < 0.1 | CC(C)c1c(-c2cc(C(F)(F)F)c3nccn3c2)[nH]c2ccc(C3CCN(Cc4cnn(C)c4)CC3)cc12 [Example 933, 6-(3-isopropyl-5-(1-((1-methyl-1H-pyrazol-4-yl)methyl)piperidin-4-yl)-1H-indol-2-yl)-8-(trifluoromethyl)imidazo[1,2-a]pyridine]
14 | < 0.1 | 1 to 50 | < 0.1 | CC(C)c1c(-c2ccc3ncnn3n2)[nH]c2ccc(C3CCN(C(=O)CN(C)C)CC3)cc12 [Example 452, 1-(4-(2-([1,2,4]triazolo[1,5-b]pyridazin-6-yl)-3-isopropyl-1H-indol-5-yl)piperidin-1-yl)-2-(dimethylamino)ethan-1-one]
